Assay results as given in patent US20210299064A1, “METHOD OF TREATING PATIENTS WITH LENNOX-GASTAUT SYNDROME” (ZOGENIX INTERNATIONAL LIMITED, priority 2020, published 2021).
Where a name gives a salt, the structure may show the parent alone. Read-outs that look alike come from different tables or passages of the source.

Experiments:
[1] = system: children and adults with Lennox-Gastaut syndrome (LGS); test: Same trial: Clinical Global Impression-Improvement (CGI-I) rating by the Principal Investigator; type: in vivo, human; settings: 0.7 mg/kg/day; placebo 6.3%; p 0.0007
Excerpt: The diagnosing can also involve a clinician's impression of symptoms. As used herein, the term “clinician” includes not only medical and psychological professions such as physicians, psychologists, psychiatrists, and nurses, but also non-professionals who observe the patient, such as a family member who resides with the patient. In some cases, the clinician is a medical or psychological professional. […] Instead, the “impression of symptoms” includes, for example, the clinician's subjective assessment of whether the overall condition of the patient has improved, worsened, or remained constant. In some cases the clinician's impression of symptoms is collected using a Clinical Global Impression (CGI) rating scale, which can include the section about severity of illness (CGI-S), global improvement (CGI-I), and efficacy index (CGI-E). […] By comparing the numerical responses over time, an assessment of the effect of the administering can be determined.
Change in seizure frequency was assessed as the drops between baseline and the combined Titration and Maintenance Periods (T+M). Also assessed was the proportion of subjects who achieve a ≥50% reduction from baseline in the frequency of seizures that result in drops. Also assessed was changes in the Clinical Global Impression—Improvement rating, as assessed by the Principal Investigator. […]

[2] = system: children with refractory epilepsy; settings: 0.5 to 1 mg/kg/day; cited from earlier work
[3] = system: children and adults with Lennox-Gastaut syndrome (LGS); test: Same trial: safety (adverse events, ECG, ECHO); type: in vivo, human
[4] = system: child suffering pattern sensitivity-induced seizures; settings: one child, resistant to anticonvulsive treatment; cited from earlier work
[5] = system: children and adults with Lennox-Gastaut syndrome (LGS); test: Randomized, double-blind, placebo-controlled trial of adjunctive fenfluramine oral solution: seizure frequency from caregiver diary; type: in vivo, human; settings: for median reduction in monthly drop seizures: 2 week titration plus 12 week maintenance, placebo 7.8% (7.6% elsewhere in the source); for reduction from baseline of generalized tonic-clonic (GTC) seizures: placebo negative 3.7%, p less than 0.001; for reduction from baseline of tonic-atonic seizures: placebo 6.8%, p 0.0455; for proportion of subjects with a 25% or more reduction in monthly drop seizures: titration plus maintenance (week 0-14), placebo 31%, p 0.007
Experimental: A randomized, double-blind, placebo-controlled trial was conducted to assess the effect of administering fenfluramine hydrochloride as an adjunctive therapy as an oral solution to children and adults with Lennox-Gastaut syndrome (LGS). The study assessed the effect of such administration on seizures experienced by the subjects.
The fenfluramine hydrochloride was supplied as an oral solution in concentrations of 1.25, 2.5, and 5 mg/mL. Subjects were randomized to receive 1 of 2 doses of fenfluramine hydrochloride (0.2 mg/kg/day, 0.8 mg/kg/day; maximum dose: 30 mg/day) or placebo. Study medication were administered twice a day (BID) in equally divided doses. (Note that subjects taking concomitant stiripentol [STP] were randomized to 0.5 mg/kg/day, maximum dose 20 mg/day, or equivalent volume of placebo. Subjects randomized to 0.5 mg/kg/day were included in analyses with the subjects randomized to 0.8 mg/kg/day not taking STP.)
Seizures that result in a drop are defined as seizures involving the entire body, trunk, or head that led to a fall, injury, slumping in a chair, or the subject's head hitting a surface or that could have led to a fall or injury, depending on the patient's position at the time of the seizure.
The cohort included 263 randomized subjects from the United States, Canada, Europe, and Australia. 87 were randomized into 0.7 mg/kg/day of fenfluramine hydrochloride, 89 were randomized into 0.2 mg/kg/day of fenfluramine hydrochloride, and 87 were randomized into a placebo.
The administration was conducted for 20 weeks. There was a 4-week baseline, a 2-week titration, a 12-week maintenance, and a 2-week taper or transition period.
The 4-week Baseline Period consisted of the establishment of initial eligibility during a screening visit to include an assessment of cardiac parameters (ECG and ECHO), followed by an observation period where subjects were assessed for baseline seizure frequency based on recordings of daily seizure activity entered into a diary. Upon completion of the Baseline Period, subjects who qualified for the study were randomized (1:1:1) in a double-blind manner to receive 1 of 2 doses of fenfluramine hydrochloride (0.2 mg/kg/day, […]; maximum dose: 30 mg/day [or 0.5 mg/kg/day, maximum 20 mg/day, for subjects taking concomitant STP]) or placebo. Randomization was stratified by weight (<37.5 kilograms [kg], ≥37.5 kg) to ensure balance across treatment arms, and at least 25% of subjects will be in each weight group. All subjects were titrated to their blinded randomized dose over a 2-week Titration Period. Following titration, subjects continued treatment at their randomly assigned dose over a 12-week Maintenance Period. Total treatment time from the beginning of the Titration Period through the end of the Maintenance Period is 14 weeks. Subjects had ECG and ECHO assessments at weeks 6 and 14 during the Maintenance Period. At the end of the Maintenance Period (or early discontinuation), all subjects underwent a blinded 2-week taper or transition period (Post-Dosing Follow-Up) depending on whether they exit the study or are enrolled in Part 2, the long-term open-label extension, respectively.
Change in seizure frequency was assessed as the drops between baseline and the combined Titration and Maintenance Periods (T+M). Also assessed was the proportion of subjects who achieve a ≥50% reduction from baseline in the frequency of seizures that result in drops. Also assessed was changes in the Clinical Global Impression—Improvement rating, as assessed by the Principal Investigator.
Primary Efficacy Analysis: The primary efficacy endpoint for Part 1 is the percent change in frequency of seizures that result in drops (DSF: drop seizure frequency) per 28 days between the T+M and Baseline periods in Cohort A. The DSF will be calculated from all available data collected during the Baseline and treatment periods without imputation. […]

[6] = system: self-induced photosensitive seizures; settings: four cases; cited from earlier work
LGS patients = settings: cited from earlier work; for reduction in seizures associated with drops: 20 mg/kg/day
[7] = 0.7 mg/kg/day, listed as Fenfluramine

## CCNC(C)Cc1cccc(C(F)(F)F)c1 (racemic) [fenfluramine, (RS)—N-ethyl-1-[3-(trifluoromethyl)phenyl]propan-2-amine]
[1]
  proportion of patients much or very much improved, CGI-I Investigator Rating: 26.3%
[2]
  effect on number of seizures: reduction in the number of seizures
[3]; 0.7 mg/kg/day, placebo 4.6%
  subjects with at least one serious treatment emergent adverse event (SAE): 11.7%
[3]; both doses, 14 weeks of treatment
  tolerability: generally well tolerated
[3]; both doses, ECHO monitoring
  cases of valvular heart disease or pulmonary arterial hypertension: No cases of valvular heart disease or pulmonary arterial hypertension were observed
[4]
  effect on self-induced pattern sensitivity-induced seizures: successfully terminated these self-induced seizures
[5]; 0.2 mg/kg/day, p 0.0915
  median reduction in monthly drop seizures: 14.2%
[5]; 0.2 mg/kg/day
  reduction from baseline of generalized tonic-clonic (GTC) seizures: 58.2%
[5]; 0.2 mg/kg/day, listed as Fenfluramine
  reduction from baseline of generalized tonic-clonic (GTC) seizures: 58%
[5]; 0.7 mg/kg/day, p 0.0012
  median reduction in monthly drop seizures: 26.5%
[5]; 0.7 mg/kg/day, p 0.0013
  Hodges-Lehmann EMD (estimated median difference) from placebo in frequency of seizures associated with a drop: 19.9%
[5]; 0.7 mg/kg/day
  reduction from baseline of tonic-atonic seizures: 46.7%
  reduction from baseline of generalized tonic-clonic (GTC) seizures: 45.7%
  proportion of subjects with a 25% or more reduction in monthly drop seizures: 51.7%
[5]; [7]
  reduction from baseline of tonic-atonic seizures: 47%
  reduction from baseline of generalized tonic-clonic (GTC) seizures: 46%
[5]; 0.7 mg/kg/day, placebo 13.3%, p 0.0601
  reduction from baseline of tonic seizures: 31.3%
[6]
  response of self-induced photosensitive seizures: responded to treatment

## O=C(c1cccnc1-c1ccncc1)N1CCC(O)(Cc2ccccc2)CC1 [Soticlestat]
LGS patients; Takeda Pharmaceuticals 2020, not statistically significant
  reduction in drop seizures: 14.8%

## C=C(C)[C@@H]1CCC(C)=C[C@H]1c1c(O)cc(CCCCC)cc1O [cannabidiol]
LGS patients; Devinksy 2018, p 0.005
  reduction in seizures associated with drops: 21.6%
LGS patients; Thiele 2018, p 0.0135
  reduction in seizures associated with drops: 17.2%

## CCNC(C)Cc1cccc(C(F)(F)F)c1 (stereo not shown) [fenfluramine HCl, fenfluramine hydrochloride]
[1]
  proportion of patients much or very much improved, CGI-I Investigator Rating: 26.3%
[5]; 0.2 mg/kg/day, p 0.0915
  median reduction in monthly drop seizures: 13.2%
[5]; 0.7 mg/kg/day, p 0.0012
  median reduction in monthly drop seizures: 26.5%
[5]; 0.7 mg/kg/day
  proportion of subjects with a 25% or more reduction in monthly drop seizures: 51.7%
